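Method: 48-hour compound exposure of cells in 96-well plates, five concentrations, linear interpolation of endpoints. TGI marks complete inhibition of growth.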
Tests used:
Experiment in all cases: NCI tumour cell line growth inhibition, 48 h
786-0 renal = system: 786-0 renal
A498 renal = system: A498 renal
A549 NSCLC = system: A549 NSCLC
ACHN renal = system: ACHN renal
BT-549 breast = system: BT-549 breast
CAKI-1 renal = system: CAKI-1 renal
CCRF-CEM leukemia = system: CCRF-CEM leukemia
COLO 205 colon = system: COLO 205 colon
DU-145 prostate = system: DU-145 prostate
EKVX NSCLC = system: EKVX NSCLC
HCC-2998 colon = system: HCC-2998 colon
HCT-116 colon = system: HCT-116 colon
HCT-15 colon = system: HCT-15 colon
HL-60(TB) leukemia = system: HL-60(TB) leukemia
HOP-62 NSCLC = system: HOP-62 NSCLC
HOP-92 NSCLC = system: HOP-92 NSCLC
HS 578T breast = system: HS 578T breast
HT29 colon = system: HT29 colon
IGROV1 ovarian = system: IGROV1 ovarian
K-562 leukemia = system: K-562 leukemia
KM12 colon = system: KM12 colon
LOX IMVI melanoma = system: LOX IMVI melanoma
M14 melanoma = system: M14 melanoma
MALME-3M melanoma = system: MALME-3M melanoma
MCF7 breast = system: MCF7 breast
MDA-MB-231 breast = system: MDA-MB-231 breast
MDA-MB-435 = system: MDA-MB-435
MDA-N = system: MDA-N
MOLT-4 leukemia = system: MOLT-4 leukemia
NCI-H226 lung = system: NCI-H226 lung
NCI-H23 lung = system: NCI-H23 lung
NCI-H460 lung = system: NCI-H460 lung
NCI-H522 lung = system: NCI-H522 lung
NCI/ADR-RES ovarian = system: NCI/ADR-RES ovarian
OVCAR-3 ovarian = system: OVCAR-3 ovarian
OVCAR-4 ovarian = system: OVCAR-4 ovarian
OVCAR-5 ovarian = system: OVCAR-5 ovarian
OVCAR-8 ovarian = system: OVCAR-8 ovarian
PC-3 prostate = system: PC-3 prostate
RXF 393 renal = system: RXF 393 renal
SF-268 CNS = system: SF-268 CNS
SF-295 CNS = system: SF-295 CNS
SF-539 CNS = system: SF-539 CNS
SK-MEL-2 melanoma = system: SK-MEL-2 melanoma
SK-MEL-28 melanoma = system: SK-MEL-28 melanoma
SK-MEL-5 melanoma = system: SK-MEL-5 melanoma
SN12C renal = system: SN12C renal
SNB-19 CNS = system: SNB-19 CNS
SNB-75 CNS = system: SNB-75 CNS
SR leukemia = system: SR leukemia
SW-620 colon = system: SW-620 colon
T-47D breast = system: T-47D breast
TK-10 renal = system: TK-10 renal
U251 CNS = system: U251 CNS
UACC-257 melanoma = system: UACC-257 melanoma
UO-31 renal = system: UO-31 renal
RPMI-8226 leukemia = system: RPMI-8226 leukemia
SK-OV-3 ovarian = system: SK-OV-3 ovarian
UACC-62 melanoma = system: UACC-62 melanoma

Measured: TGI

COc1nn(Cc2ccccc2F)c2ccc([N+](=O)[O-])cc12
> 83.6 µM: RXF 393 renal
> 23.6 µM: MDA-MB-435
> 92.3 µM: A498 renal
not listed: RPMI-8226 leukemia | SK-OV-3 ovarian | UACC-62 melanoma
> 100 µM: all other assays above

Cc1cc(=O)oc2cc(OC(=O)Nc3ccc(Cl)c(Cl)c3)ccc12
61.5 µM: BT-549 breast
41.2 µM: MDA-MB-435
85.2 µM: EKVX NSCLC
66.4 µM: HS 578T breast
48.1 µM: SW-620 colon
84 µM: KM12 colon
54.8 µM: OVCAR-8 ovarian
51.6 µM: CCRF-CEM leukemia
43.4 µM: HOP-92 NSCLC
50.2 µM: OVCAR-3 ovarian
37.2 µM: LOX IMVI melanoma
50.9 µM: M14 melanoma
78.1 µM: ACHN renal
36.2 µM: RPMI-8226 leukemia
44.4 µM: MOLT-4 leukemia
68.2 µM: PC-3 prostate
32.6 µM: A498 renal
84.2 µM: UACC-257 melanoma
41 µM: HCC-2998 colon
82.1 µM: A549 NSCLC
28.2 µM: K-562 leukemia
54.7 µM: MDA-N
56.1 µM: SK-MEL-2 melanoma
54.4 µM: NCI-H522 lung
75.4 µM: HT29 colon
41.9 µM: HL-60(TB) leukemia
89.6 µM: NCI-H460 lung
60.5 µM: IGROV1 ovarian
38.5 µM: SF-539 CNS
53 µM: NCI-H23 lung
90.5 µM: DU-145 prostate
86.4 µM: CAKI-1 renal
70.9 µM: SN12C renal
63.2 µM: HOP-62 NSCLC
52.3 µM: RXF 393 renal
72.7 µM: UO-31 renal
29.7 µM: SK-MEL-5 melanoma
67.3 µM: SK-MEL-28 melanoma | SNB-75 CNS
56.8 µM: U251 CNS
77.2 µM: SNB-19 CNS
46.6 µM: NCI-H226 lung
74.4 µM: SF-295 CNS
96.5 µM: COLO 205 colon
46.3 µM: SR leukemia
35.1 µM: UACC-62 melanoma
88.4 µM: SK-OV-3 ovarian
40.7 µM: HCT-116 colon
51.8 µM: MALME-3M melanoma
61.9 µM: OVCAR-5 ovarian
58 µM: MDA-MB-231 breast
68.3 µM: T-47D breast
> 100 µM: all other assays above

COc1ccc(/C=C2\CN(C)CC3=C2OC(N)=C(C#N)C3c2ccc(OC)cc2)cc1 (centres undefined)
59.3 µM: HOP-92 NSCLC
> 49 µM: MOLT-4 leukemia
58.1 µM: MALME-3M melanoma
> 93.1 µM: OVCAR-3 ovarian
> 27.6 µM: HL-60(TB) leukemia
> 86.9 µM: RXF 393 renal
> 71.2 µM: MDA-MB-435
> 83.1 µM: NCI-H522 lung
> 95.5 µM: IGROV1 ovarian
> 65.5 µM: SK-MEL-2 melanoma
> 53.1 µM: PC-3 prostate
> 43.9 µM: RPMI-8226 leukemia
30.2 µM: CCRF-CEM leukemia
> 90.5 µM: HCC-2998 colon
not listed: SNB-75 CNS
> 100 µM: all other assays above

CCCn1cnc2c(NN=O)ncnc21
not listed: A549 NSCLC | CCRF-CEM leukemia | LOX IMVI melanoma | SF-295 CNS | SK-MEL-2 melanoma | SN12C renal | UACC-257 melanoma | SK-OV-3 ovarian
> 100 µM: all other assays above

Reference: PubChem BioAssay (NCI)
